Laboratory results published in patent publication US10918753B2, “Use of ozone to control bioburden in precipitated calcium carbonate slurry (PCC)” (Colgate-Palmolive Company, priority 2014, dated 2021).

Test system: gram negative and gram positive bacilli
Assay: Ozone treatment of precipitated calcium carbonate slurry; bioburden / log reduction of bacteria at sampling points
Assay type: cell-based
Method: A precipitated calcium carbonate slurry was prepared as shown FIG. 1. At the precipitation phase of the “Region of High Microbial Growth”, FIG. 1), the slurry was contaminated with gram negative and gram positive bacilli. The shiny was then continuously transferred from a precipitation tank (not shown) to a neutralization tank (100). Upon entry into the neutralization tank, the slurry was neutralized using carbon dioxide. A sample was collected from the neutralization tank to assess the initial bioburden of the slurry (3.6×10^6 CFU/g). After neutralization, 3.5 or 5 ppm (depending on trial) of ozone was injected into the slurry after circulation through the pump (120) (FIG. 3). […] The pH of the slurry in the neutralization tank ranged from 6.9 to 8.3 and the temperature ranged from 24° C. to 46° C.
The degree of log reduction in bacteria was sampled at sampling point 1 (160) (FIG. 3) at time zero and every five minutes up to 40 minutes. As depicted in Table 1, below, a 1-2 log reduction of bacteria was observed after 40 minutes under recirculation.
A precipitated calcium carbonate slurry was prepared according to Example 1. Five trials were conducted. The ozone was injected as described in Example 1 at a concentration ranging from 5 ppm to 25 ppm. Samples were taken after 40 minutes of recirculation, 40 minutes after ozone contact with the slurry in the neutralization tank (100) or immediately after the slurry passed through the static mixer (140) as shown in FIG. 3. […] This difference is log reduction may be attributable to the mixing of ozone-treated slurry in the neutralization tank (100) with the non-treated slurry from the precipitation tank (not shown).
The sampling variability was confirmed in further trials by assessing the ozone concentration before and after ozone treatment and assessing the bioburden from samples taken at sampling point 1 (160) or sampling point 2 (150). In one trial, an initial bioburden (without ozone) of a sample collected from the slurry tank was 3.6×10^6 CFU/g. After an ozone injection at a 5 ppm concentration, the amount of bioburden was reduced to 1.7×10^4 CFU/g after 40 minutes recirculation. […] However, when a sample in the third trial was collected and tested at sampling point 2 (150) a few seconds after ozone injection, the bioburden was less than 10 CFU/g. Accordingly, the data support that the disclosed process using ozone treatment is capable of reducing an initial bioburden by 5 log, i.e., 10^6 to 10^1 CFU/g.

O=[O+][O-] [ozone]
log reduction of bacteria (Example 1 summary, 3.5 or 5 ppm ozone, sampling point 1, after 40 minutes under recirculation): 1-2 log | Log Reduction (Example 1 trial T1, sampling point 1, ozone 5.0 ppm, 12% PCC, pH 8.3, 24 °C, 40 minutes under recirculation): 2 log | Log Reduction (Example 1 trial T2, sampling point 1, ozone 5.0 ppm, 28% PCC, pH 7.2, 33 °C, 40 minutes under recirculation): 2 log | Log Reduction (Example 1 trial T3, sampling point 1, ozone 3.5 ppm, 39% PCC, pH 6.9, 33 °C, 40 minutes under recirculation): 1 log | Log Reduction (Example 1 trial T4, sampling point 1, ozone 5.0 ppm, 39% PCC, pH 6.9, 46 °C, 40 minutes under recirculation): 2 log | log reduction of bacteria (Example 2 summary, higher ozone injection (25 ppm)): 4-5 log | log reduction of bacteria (Example 2 summary, lower concentrations of injected ozone): 1-2 log | Log Reduction (Example 2 trial T1, sampling point 1, ozone 7.5 ppm, Recirculation, pH 8.3, 40 minutes): 2 log | Log Reduction (Example 2 trial T2, sampling point 1, ozone 7.5 ppm, Recirculation, pH 7.2, +40 minutes): +2 log | Log Reduction (Example 2 trial T3, sampling point 1, ozone 5 ppm, Within Tank, pH 6.9, 40 minutes): 1 log | Log Reduction (Example 2 trial T4, sampling point 1, ozone 25 ppm, Recirculation, pH 6.9, 40 minutes): 2 log | Log Reduction (Example 2 trial T5, sampling point 2, ozone 25 ppm, After initial flow through static mixer, pH 6.9, seconds): 4-5 log | bioburden (Example 3 another trial, initial bioburden 8.8×10^5 CFU/g, sampling point 2, seconds after ozone injection): 7.0×10^1 CFU/g | reduction of initial bioburden (Example 3 conclusion, 10^6 to 10^1 CFU/g): 5 log | bioburden (Example 3 first trial, initial bioburden 3.6×10^6 CFU/g, ozone 5 ppm, after 40 minutes recirculation): 1.7×10^4 CFU/g | bioburden (Example 3 first trial, initial bioburden 3.6×10^6 CFU/g, ozone 5 ppm, sampling point 2): 9.1×10^1 CFU/g | bioburden (Example 3 third trial, sampling point 1, after ozone treatment and 40 minutes recirculation (mixed with untreated slurry)): 8.8×10^5 CFU/g | bioburden (Example 3 third trial, sampling point 2, a few seconds after ozone injection): less than 10 CFU/g
